The results in this text go back to BindingDB's records for doi:10.1016/j.chembiol.2004.10.013 (University of Dundee, 2005).

*1 amine or outer side, *2 acyl side, *3 side chain or, on linkers, in order; H or OH if unused. Where a SMILES comes first, the peptide text is derived from it. Side-chain parts run from the residue outwards. [ ]: non-standard residue; d: D form. βAsp = O=C(O)[C@H](CC(=O)[*:2])N[*:1]; NMeF = CN[C@@H](Cc1ccccc1)C(=O)O; CO = O=C([*:1])[*:2]

Test in all cases: Enzyme Inhibition Assay
Experiment [1] addresses Endochitinase B1 [E322A] (Aspergillus fumigatus, UniProt Q873X9, E322A).
In experiment [2] the target is Endochitinase B1 [D175A] (Aspergillus fumigatus, UniProt Q873X9, D175A).
For experiment [3], the target named is Endochitinase B1 (Aspergillus fumigatus, UniProt Q873X9). As to conditions: for IC50: pH 5.5, 37 °C.
In experiment [4] the target is Endochitinase B1 [M243A] (Aspergillus fumigatus, UniProt Q873X9, M243A).
The target of experiment [5] is Endochitinase B1 [R301K] (Aspergillus fumigatus, UniProt Q873X9, R301K).
Experiment [6] has as its target T1, Chitinase B (Serratia marcescens, UniProt P11797).
T1 sequence (P11797 whole entry): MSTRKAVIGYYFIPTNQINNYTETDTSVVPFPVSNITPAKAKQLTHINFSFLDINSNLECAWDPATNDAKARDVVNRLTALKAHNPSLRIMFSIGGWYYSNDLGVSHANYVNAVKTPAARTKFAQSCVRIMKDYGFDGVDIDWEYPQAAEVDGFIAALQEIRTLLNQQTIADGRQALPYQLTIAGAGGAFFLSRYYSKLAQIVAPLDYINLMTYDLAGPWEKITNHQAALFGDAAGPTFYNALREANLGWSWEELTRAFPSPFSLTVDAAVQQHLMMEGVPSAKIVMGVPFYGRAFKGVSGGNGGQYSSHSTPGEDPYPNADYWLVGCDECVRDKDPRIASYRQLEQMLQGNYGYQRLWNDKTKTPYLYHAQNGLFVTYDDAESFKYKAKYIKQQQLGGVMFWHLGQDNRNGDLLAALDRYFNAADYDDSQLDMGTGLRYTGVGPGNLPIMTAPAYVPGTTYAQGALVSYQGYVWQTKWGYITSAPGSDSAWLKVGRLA
As to conditions: pH 5.5; 37 °C.

Experiment [7] concerns the target Endochitinase B1 [T138A] (Aspergillus fumigatus, UniProt Q873X9, T138A).
The target in experiment [8] is Endochitinase B1 [A217G] (Aspergillus fumigatus, UniProt Q873X9, A217G).
Experiment [9] has as its target Endochitinase B1 [Y245F] (Aspergillus fumigatus, UniProt Q873X9, Y245F).

As a reminder, the Kd is the concentration at which binding is half-saturated. Low values mean tighter binding, high ones weaker binding. A word on the IC50: it is the concentration at which inhibition is half-maximal. Higher therefore signals weaker potency in that assay. By Ki is commonly meant the dissociation constant of the complex between target and ligand, obtained from inhibition or displacement. The low end stands for higher affinity, the high end for lower affinity. For the compound `CNC(=O)NC(=N)NCCC[C@@H]1NC(=O)[C@@H](C)NC(=O)C[C@@H](C(=O)O)NC(=O)C[C@@H](C(=O)O)NC(=O)[C@H](Cc2ccccc2)N(C)C1=O` [(2R,5S,8S,11S,15S)-8-benzyl-2,7-dimethyl-5-[3-({[(methylcarbamoyl)amino]methanimidoyl}amino)propyl]-3,6,9,13,17-pentaoxo-1,4,7,10,14-pentaazacycloheptadecane-11,15-dicarboxylic acid] (cyclo([NMeF][βAsp][βAsp][dA]R([CO-NHMe]))), the Kd in experiment [1] amounted to 1370 nM; in experiment [2], 3.81 µM; in experiment [3] it was 460 nM; in [4], 1.73 µM; in experiment [5] it was 2160 nM; in experiment [7] it was 1210 nM. In [8], this compound registered a Kd of 4.24 µM. In experiment [3], this compound displayed an IC50 of 1100 nM. In [6], this compound registered an inhibition constant Ki of 33 µM.

Take `CC(=O)NC(=N)NCCC[C@@H]1NC(=O)[C@H](CCCC(=O)O)NC(=O)[C@H](Cc2c[nH]cn2)N2C(=O)[C@H](C[C@H]2O)NC(=O)[C@H]2CCCN2C1=O` [4-[(1S,4R,10S,13S,16S,18R)-10-{3-[(acetamidomethanimidoyl)amino]propyl}-18-hydroxy-16-(1H-imidazol-4-ylmethyl)-3,9,12,15,20-pentaoxo-2,8,11,14,17-pentaazatricyclo[15.2.1.0^{4,8}]icosan-13-yl]butanoic acid]: the Kd was 5.57 µM in [9]; 2930 nM in [1]; 3.6 µM in [2]; 810 nM in experiment [3]; 9.39 µM in experiment [4]; 1020 nM in experiment [5]. The Kd was 3040 nM in [7] and 2.84 µM in [8]. Besides, inhibition in experiment [3] was half-maximal at 500 nM (IC50). In [6], this compound gave a Ki of 0.02 µM.
